Laboratory results from patent publication US12370263B2, “Cyclic dinucleotide derivative based antibody-drug conjugates” (DAIICHI SANKYO COMPANY, LIMITED, priority 2018, dated 2025).

target: Human STING (Homo sapiens, UniProt Q86WV6, G230A/H232R/R293Q/R71H); assay: Reporter gene assay, human STING agonist activity, THP1-Dual cells (HAQ-mutated), IRF pathway; conditions: THP1-Dual cells IRF EC50, THP1-Dual cells (HAQ-mutated), 24 hours; 100% = maximum count with ML-RR-CDA·2Na+
Sequence (Q86WV6 whole entry R71H/G230A/H232R/R293Q): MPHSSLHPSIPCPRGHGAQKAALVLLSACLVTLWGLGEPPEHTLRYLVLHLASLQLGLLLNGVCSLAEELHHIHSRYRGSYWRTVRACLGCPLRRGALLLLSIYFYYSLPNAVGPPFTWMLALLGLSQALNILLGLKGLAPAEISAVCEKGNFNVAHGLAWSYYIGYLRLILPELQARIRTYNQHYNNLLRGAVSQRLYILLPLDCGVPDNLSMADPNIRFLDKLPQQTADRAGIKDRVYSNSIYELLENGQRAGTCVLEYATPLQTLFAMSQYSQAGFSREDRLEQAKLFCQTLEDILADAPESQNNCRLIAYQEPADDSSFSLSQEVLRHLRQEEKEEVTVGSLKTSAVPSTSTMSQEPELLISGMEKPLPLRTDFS
Description: Human STING agonist activity was evaluated by using THP1-Dual™ cells (HAQ-mutated) (InvivoGen, CA, US), with which the activation of the pathway of interferon regulatory factor-3 (IRF3), which is present in the downstream of the STING pathway, can be confirmed.
Assay was performed as follows. First, a test compound diluted with PBS was aliquoted into a transparent 96-well plate (Corning Incorporated, NY, US) at 20 μL/well. Subsequently, reporter cells suspended in assay buffer (an RPMI1640 medium or DMEM medium containing 10% bovine serum albumin) were added at 180 μL/well (1×10^5 cells/well) to initiate stimulation. After the cells were cultured in an environment at 37° C. and 5% CO2 for 24 hours, the resultant was centrifuged to collect the supernatant. To a white 384-well plate, 6 μL of the supernatant collected was added, and 15 μL of QUANTI-Luc (InvivoGen) solution was added thereto. After the resultant was well mixed together, emission was measured by using a plate reader (PerkinElmer, Inc., MA, US).

SMILES | EC50 [µM]
O=c1c2ncn([C@@H]3O[C@@H]4COP(=O)(S)O[C@H]5[C@H](F)[C@H](n6cc7c8c(ncnc86)NCCC7)O[C@@H]5COP(=O)(S)O[C@@H]3[C@@H]4O)c2ncn1CCO (single isomer, unassigned) [33a] | 0.18
O=c1c2ncn([C@@H]3O[C@@H]4COP(=O)(S)O[C@H]5[C@@H](O)[C@H](n6cc7c8c(ncnc86)NCCC7)O[C@@H]5COP(=O)(S)O[C@@H]3[C@@H]4O)c2ncn1CCO (single isomer, unassigned) [6b] | 2.1
Nc1ncnc2c1ncn2[C@@H]1O[C@@H]2COP(=O)(S)O[C@H]3[C@@H](O)[C@H](n4cc5c6c(ncnc64)OCCC5)O[C@@H]3COP(=O)(S)O[C@@H]1[C@@H]2O (single isomer, unassigned) [20b] | 0.4
NCc1nc(N)c2ncn([C@@H]3O[C@@H]4COP(=O)(S)O[C@H]5[C@@H](O)[C@H](n6cc7c8c(ncnc86)NCCC7)O[C@@H]5COP(=O)(S)O[C@@H]3[C@@H]4O)c2n1 (single isomer, unassigned) [11a] | 4
Nc1ncnc2c1ncn2[C@@H]1O[C@@H]2COP(=O)(S)O[C@H]3[C@@H](O)[C@H](n4cc5c6c(ncnc64)NCCC5)O[C@@H]3COP(=O)(S)O[C@@H]1[C@@H]2O (single isomer, unassigned) [2a] | 4.7
O=c1c2ncn([C@@H]3O[C@@H]4COP(=O)(S)O[C@H]5[C@@H](O)[C@H](n6cc7c8c(ncnc86)NCCC7)O[C@@H]5COP(=O)(S)O[C@@H]3[C@@H]4F)c2ncn1CCO (single isomer, unassigned) [39b] | 0.41
O=c1c2ncn([C@@H]3O[C@@H]4COP(=O)(S)O[C@H]5[C@@H](F)[C@H](n6cc7c8c(ncnc86)NCCC7)O[C@@H]5COP(=O)(S)O[C@@H]3[C@@H]4O)c2ncn1CCO (single isomer, unassigned) [34b] | 0.55
O=c1c2ncn([C@@H]3O[C@@H]4COP(=O)(S)O[C@H]5[C@@H](O)[C@H](n6cc7c8c(ncnc86)NCCC7)O[C@@H]5COP(=O)(S)O[C@@H]3[C@@H]4O)c2ncn1CCCO (single isomer, unassigned) [26a] | 1.4
O=c1c2ncn([C@@H]3O[C@@H]4COP(=O)(S)O[C@H]5C[C@H](n6cc7c8c(ncnc86)NCCC7)O[C@@H]5COP(=O)(S)O[C@@H]3[C@@H]4O)c2ncn1CCO (single isomer, unassigned) [32b] | 6.4

Next, values leading:

EC50 [µM] | SMILES
0.46 | O=c1c2ncn([C@@H]3O[C@@H]4COP(=O)(O)O[C@H]5[C@@H](F)[C@H](n6cc7c8c(ncnc86)NCCC7)O[C@@H]5COP(=O)(S)O[C@@H]3[C@@H]4O)c2ncn1CCO (single isomer, unassigned) [52b]
0.33 | NCCn1cnc2c(ncn2[C@@H]2O[C@@H]3COP(=O)(S)O[C@H]4[C@@H](F)[C@H](n5cc6c7c(ncnc75)SCCC6)O[C@@H]4COP(=O)(S)O[C@@H]2[C@@H]3O)c1=O (single isomer, unassigned) [49a]
0.35 | O=c1c2ncn([C@@H]3O[C@@H]4COP(=O)(S)O[C@H]5[C@@H](F)[C@H](n6cc7c8c(ncnc86)NCCC7)O[C@@H]5COP(=O)(S)O[C@@H]3[C@@H]4F)c2ncn1CCO (single isomer, unassigned) [44b]
3.6 | O=C(CO)NCCn1cnc2c(ncn2[C@@H]2O[C@@H]3COP(=O)(S)O[C@H]4[C@@H](O)[C@H](n5cc6c7c(ncnc75)NCCC6)O[C@@H]4COP(=O)(S)O[C@@H]2[C@@H]3F)c1=O (single isomer, unassigned) [41b]
1.1 | O=C(CO)NCCn1cnc2c(ncn2[C@@H]2O[C@@H]3COP(=O)(S)O[C@H]4[C@@H](O)[C@H](n5cc6c7c(ncnc75)NCCC6)O[C@@H]4COP(=O)(S)O[C@@H]2[C@@H]3F)c1=O (single isomer, unassigned) [41a]

same assay, conditions: read-out: THP1-Dual cells IRF EC50; THP1-Dual cells (HAQ-mutated), 24 hours; 100% = maximum count with ML-RR-CDA·2Na+

EC50 [µM] | SMILES
3.9 | Nc1ncnc2c1ncn2[C@@H]1O[C@@H]2COP(=O)(S)O[C@@H]3[C@@H](COP(=O)(S)O[C@@H]1[C@@H]2O)C[C@@H](n1cc2c4c(ncnc41)NCCC2)[C@@H]3O (single isomer, unassigned) [46a]
